Here are results for 64 molecules from PubChem BioAssay AID844 (SRMLSC, 2007).

Broadly, the EC50 is the concentration at which the effect is half-maximal.

The test system of the assay is MRP1 cells, doxorubicin viability shift, 10 uM compound. The experiment in a line: viability protection against doxorubicin, MRP-1 line – cell-based, doxorubicin EC50 shift, dose response (AID 844). As to conditions: for EC50: measured here: doxorubicin EC50 with compound.

The source made the active and inactive calls. The rule behind the calls is not given here.

As to `Cc1ccc(NC(=O)CCC(=O)N/N=C/c2cccs2)cc1C`, the fold increase in Dox EC50 was 0.97 (inactive) and the EC50 worked out at 5.23 µM.
For `CC(/C=C1\SC(=S)N(CCCC(=O)Nc2ccc(C(=O)O)cc2)C1=O)=C\c1ccccc1` the same measures were 0.55 (inactive) and 2.98 µM.
Take `Cc1ccc(NC(=O)CCNC(=O)c2ccc(Cl)cc2)cc1F`: the fold increase in Dox EC50 was 1.15 (inactive) and the EC50 was 6.19 µM.
Consider `CCOC(=O)CSc1nc(N)nc(C)c1Br`, for which the fold increase in Dox EC50 was 0.78 (inactive) and the EC50 was 4.2 µM.
For `Cc1ccc(NC(=O)CSc2nnc(C)n2-c2ccccc2)cc1`, in that order: 1.61 and 8.71 µM.
As to `C=CCn1c(CNc2ccccc2)nnc1SCC(=O)N/N=C/c1ccccc1O`, the fold increase in Dox EC50 is 0.58 (inactive) and the EC50 came to 3.11 µM.
`Cc1ccc(C)c(N2CCN(C(=O)c3ccc4nc(-c5ccco5)c(-c5ccco5)nc4c3)CC2)c1`: the fold increase in Dox EC50 is 0.79 (inactive) and the EC50 is 4.25 µM.
For `COc1ccccc1NC(=O)CSC(N)=O` the same measures were 0.81 (inactive) and 4.4 µM.
For `N#Cc1nc(COc2cccc(Cl)c2)oc1N1CCCC1` the same measures were 0.93 (inactive) and 5.04 µM.
For `COc1ccc(C2C(C(=O)OCC(=O)NC(C)(C)C)CCC(=O)N2c2ccc(C)cc2)cc1OC` (stereo not drawn) the same measures were 0.81 (inactive) and 4.36 µM.
As to `O=C(CC(Nc1ccc(F)cc1)C(=O)OCC(=O)c1cccs1)c1ccccc1` (stereo not drawn), the fold increase in Dox EC50 was 0.69 (inactive) and the EC50 was 3.73 µM.
For `CCOc1ccc(C2CC(c3ccc(F)cc3)Nc3nc(N)nn32)cc1` (stereo not drawn) the same measures were 0.55 (inactive) and 2.95 µM.
Regarding `CNc1oc(-c2ccc(C)cc2)nc1P(=O)(c1ccccc1)c1ccccc1`, the fold increase in Dox EC50 is 0.95 (inactive) and the EC50 amounted to 5.13 µM.
`Cc1cccc(C)c1N=Cc1c(O)n(-c2nccs2)c(=O)c2ccccc12`: the fold increase in Dox EC50 was 0.6 (inactive) and the EC50 came out at 3.22 µM.
For `CSc1ncc(Cl)c(C(=O)Nc2nnc(SC)s2)n1` the same measures were 1.12 (inactive) and 6.07 µM.
For `CCSC(C)CC1C/C(=N/O)c2c(CC)noc2C1` (stereo not drawn), in that order: 1.27 (inactive) and 6.85 µM.
As for `COc1cccc(/C=N/NC(=O)CNC(=O)C2COc3ccccc3O2)c1O` (stereo not drawn), the fold increase in Dox EC50 was 0.12 (inactive) and the EC50 was found to be 0.637 µM.
For `COc1ccc(-c2cc3nc(-c4ccccc4)cc(N4CCC5(CC4)OCCO5)n3n2)cc1` the same measures were 0.21 (inactive) and 1.16 µM.
For `Cc1ccc(NC(=O)CNC(=O)c2cccs2)cc1S(=O)(=O)Nc1ccc(Cl)cc1` the same measures were 1.11 (inactive) and 5.97 µM.
Consider `CCOC(=O)/C(=N\Nc1ccccc1Cl)N1CCN(Cc2ccccc2)CC1`, for which the fold increase in Dox EC50 was 0.63 (inactive) and the EC50 worked out at 3.43 µM.
For `Cn1c(=O)c2c(nc(OCc3ccccc3)n2C)n(C)c1=O`, in that order: 0.7 (inactive) and 3.78 µM.
On to `O=C1NC(=O)C2(COC(c3ccccc3Cl)OC2)S1` (stereo not drawn), for which the fold increase in Dox EC50 is 0.69 (inactive) and the EC50 amounted to 3.74 µM.
For `CCCOc1ccc(CSc2ncn[nH]2)cc1`, in that order: 0.89 (inactive) and 4.79 µM.
For `C=C(C)C(=O)NC1=NN(c2ccccc2)C(=O)C1` the same measures were 1.04 (inactive) and 5.63 µM.
`COc1ccc(NC(=O)c2oc3ccccc3c2NC(=O)C(C)(C)C)cc1`: the fold increase in Dox EC50 was 0.63 (inactive) and the EC50 stood at 3.41 µM.
For `CCCOC(=S)NC(=O)c1sc2ccccc2c1Cl`, the fold increase in Dox EC50 is 1.25 (inactive) and the EC50 amounted to 6.75 µM.
For `N#CC1=C2C=Cc3ccccc3N2CCCC1=O`, in that order: 1.28 (inactive) and 6.9 µM.
For `c1ccc(N2CCN(c3nc(-c4cccs4)nc4ccccc34)CC2)cc1`, in that order: 0.81 (inactive) and 4.37 µM.
For `O=C(c1ccc(COc2ccc(Cl)cc2)o1)N1N=C(C(F)F)CC1(O)C(F)F` (stereo not drawn), in that order: 1.44 (inactive) and 7.77 µM.
For the molecule `Cc1cc(C(=O)N/N=C/c2cc([N+](=O)[O-])cc(C)c2O)n[nH]1`, the fold increase in Dox EC50 is 0.53 (inactive) and the EC50 amounted to 2.87 µM.
For `CN(Cc1ccccc1)c1oc(COc2ccccc2F)nc1C#N`, in that order: 0.66 (inactive) and 3.56 µM.
For `Cc1ccc(C2CC(C(F)(F)F)n3nc(C(=O)NCc4c(C)nn(C)c4C)c(Cl)c3N2)cc1` (stereo not drawn), in that order: 1.13 (inactive) and 6.1 µM.
Regarding `Cc1ccc(C)c(N2CCN(C(=O)Cc3ccc(-n4c(=O)[nH]c5ccsc5c4=O)cc3)CC2)c1`, the fold increase in Dox EC50 is 0.58 (inactive) and the EC50 amounted to 3.12 µM.
For the molecule `O=C(Nc1nnc(COc2ccc(Cl)cc2)s1)C1CCCO1` (stereo not drawn), the fold increase in Dox EC50 is 1.2 (inactive) and the EC50 turned out to be 6.46 µM.
For `CCCCCn1c(CN2CCCCC2C)nc2c1c(=O)n(C)c(=O)n2C` (stereo not drawn) the same measures were 0.16 (inactive) and 0.883 µM.
For `COc1ccc(-n2c(C)nc(=O)c(-c3ccccc3)c2C)cc1` the same measures were 0.83 (inactive) and 4.47 µM.
Turning to `CCOC(=O)/C=C1\SCC(=O)N1CCOc1cccc(Br)c1`, the fold increase in Dox EC50 is 1.2 (inactive) and the EC50 was found to be 6.5 µM.
`O=C(COc1ccc(Cl)cc1)N1CCN(Cc2ccccc2)CC1`: the fold increase in Dox EC50 was 1.38 (inactive) and the EC50 is 7.48 µM.
For `Cc1ccc(COc2cccc3c2CCN(Cc2ccc(F)cc2)C3=O)cc1`, in that order: 1.02 (inactive) and 5.52 µM.
In the case of `CCc1nn2c(N)c(/C=C3\C=Nc4ccccc43)c(=O)nc2s1`, the fold increase in Dox EC50 is 1.43 (inactive) and the EC50 was found to be 7.74 µM.
As to `N/C(=N\N=C\c1ccc2c(c1)OCO2)c1nonc1N`, the fold increase in Dox EC50 was 0.88 (inactive) and the EC50 turned out to be 4.73 µM.
For `O=C(CSc1ncn[nH]1)NCCC(c1ccccc1)c1ccccc1`, in that order: 0.56 (inactive) and 3.03 µM.
For `O=C(NCCC1=CCCCC1)C1CCN(S(=O)(=O)c2cccc3cccnc23)CC1`, in that order: 0.43 (inactive) and 2.31 µM.
As to `CC1CCc2nn(CC(=O)N3CCN(C(=O)c4ccco4)CC3)cc2C1` (stereo not drawn), the fold increase in Dox EC50 is 0.66 (inactive) and the EC50 stood at 3.57 µM.
For `O=C(Nc1ncc(Cc2ccccc2Cl)s1)c1ccc(-c2cccc([N+](=O)[O-])c2)o1` the same measures were 0.81 (inactive) and 4.38 µM.
For `CC(=O)c1ccc(NC(=O)CCCN2C(=O)/C(=C/C(C)=C/c3ccccc3)SC2=S)cc1` the same measures were 0.19 (inactive) and 1.01 µM.
For `CCCCOc1ccc(C(=O)Oc2ccc(C)nc2)cc1`, in that order: 0.9 (inactive) and 4.88 µM.
For the molecule `O=C(CSc1ncn[nH]1)NC12CC3CC(CC(C3)C1)C2`, the fold increase in Dox EC50 was 0.64 (inactive) and the half-maximal effective concentration (EC50) was determined as 3.43 µM.
For `CC(C)(C)c1ccc(C(=O)CSc2ncn[nH]2)cc1`, in that order: 0.82 (inactive) and 4.41 µM.
For `O=C(COC(=O)C1CC2C=CC1C2)Nc1ccc2c(c1)OC(F)(F)O2` (stereo not drawn), the fold increase in Dox EC50 is 1.21 (inactive) and the EC50 stood at 6.54 µM.
Turning to `COC(=O)CCc1c(C)[nH]c(C(=O)OCc2ccccc2)c1C`, the fold increase in Dox EC50 is 0.85 (inactive) and the EC50 is 4.57 µM.
Consider `Cc1cc(C)n(-c2nc3ccccc3nc2Nc2ccc3c(c2)OCO3)n1`, for which the fold increase in Dox EC50 is 0.75 (inactive) and the EC50 was found to be 4.02 µM.
Consider `N#Cc1nc(COc2ccccc2)oc1N1CCCCCC1`, for which the fold increase in Dox EC50 was 0.59 (inactive) and the EC50 stood at 3.17 µM.
For `O=C(c1cnn2c(C(F)(F)F)cc(-c3cccs3)nc12)N1CCN(C(c2ccccc2)c2ccccc2)CC1` the same measures were 0.17 (inactive) and 0.916 µM.
For `O=C(CCCCl)NC1=NN(c2ccccc2)C(=O)C1` the same measures were 1.56 and 8.43 µM.
For `CCCCn1nnc(NC(=S)NC(=O)c2cccs2)n1` the same measures were 1.16 (inactive) and 6.26 µM.
Turning to `COC(=O)N/N=C/c1ccc(-c2ccc(Cl)c(Cl)c2)o1`, the fold increase in Dox EC50 is 0.67 (inactive) and the EC50 came to 3.62 µM.
Regarding `CC1(C)CC(=O)C2=C(C1)N=C1SCCC(=O)N1C2c1ccc(C(F)(F)F)cc1` (stereo not drawn), the fold increase in Dox EC50 was 1.21 (inactive) and the EC50 is 6.51 µM.
As for `Cc1cc2nc(/N=C(\N)NC(=O)N3c4ccccc4Sc4ccccc43)nc(C)c2cc1C`, the fold increase in Dox EC50 was 1.69 and the EC50 is 9.15 µM.
For `Cn1c(C(=O)NCc2ccccc2)cc2oc3ccccc3c21`, in that order: 1.46 (inactive) and 7.9 µM.
Turning to `COc1cccc(/C=N/NC(=O)C(C)n2nc(C)c([N+](=O)[O-])c2C)c1O` (stereo not drawn), the fold increase in Dox EC50 is 0.33 (inactive) and the EC50 worked out at 1.77 µM.
Turning to `CCc1nnc(NC(=O)C2COc3ccccc3O2)s1` (stereo not drawn), the fold increase in Dox EC50 was 1.1 (inactive) and the EC50 was 5.95 µM.
With `O=C(COc1nsnc1N1CCOCC1)N/N=C/c1ccccc1O`, the fold increase in Dox EC50 was 0.26 (inactive) and the EC50 was 1.39 µM.
For `COc1ccc(/C=N\NC(=O)c2cc(O)c(O)c(O)c2)cc1CN1CCN(c2ccc(F)cc2)CC1` the same measures were 0.69 (inactive) and 3.74 µM.
